Structures can show the parent of a compound that is named as a salt.
Assays:
Assay type in all cases: cell-based
HCT116 cells = assay: Effects on HCT116 colorectal cancer cell viability (cell titre blue, 72 hours); details: Homo sapiens, HCT-116, HCT116 cell line
Experimental: Assay to Measure the Effects of Compounds of the Invention on HCT116 Colorectal Cancer Cell Viability
The following protocol was used to measure the effects of compounds of the invention on HCT116 cell viability.
1. HCT116 cells were grown in RPM11640 media supplemented with Glutamax and 10% FBS in a 37° C./5% CO2 incubator.
2. Growing culture of HCT116 cells were trypsinised, counted and diluted to give 10,000 cells/mL in an appropriate volume, allowing at least 6 mL of cells per plate.
3. 200 μL of PBS were added to all the outer wells of a flat-bottomed (8×12) 96-well TC plate. 100 μL of media were added only to wells in column 11 of the plates (these wells provided a blank for the cell titre blue assay). Two compounds were assayed on each plate.
4. 100 ul of 10,000 cells/mL HCT116s were plated in rows B-G of each plate.
5. The cells were incubated (37° C. 5% CO2) for 24 hours before treating with compounds.
6. An 8 mM compound stock in DMSO was prepared for all compounds to be tested. 2.5 μL of the compound stock was added to 1000 μL growth medium in a 96-well deep well block and serial dilutions were prepared across the plate by transferring 500 μL into wells containing 500 μL growth medium+0.25% DMSO to give eight concentrations of compound (this ensured a constant amount of DMSO at all concentrations of compound). When making up growth medium+DMSO, an amount of 5 ml was allowed per compound to be diluted.
7. 3 rows of cells were treated with 100 μL/well from each row on the dilution plate so that each cell plate is treated with a single compound. This gave a final volume in all wells of 200 μL and a titration of compound from a final concentration of 10 uM down to 78 nM.
8. The cells were incubated (37° C. 5% CO2) for 72 hours.
9. 5 ul cell titre blue reagent (Promega) were added to all wells except the edge wells (which contain PBS only) and incubated (37° C. 5% CO2) for 2.5-3 hours.
10. Fluorescence was measured on a suitable plate reader using a 530-570 nm filter set for excitation and a 580-620 nm filter set for fluorescence emission.
11. Data were analysed using an appropriate graphing package (such as GraphPad Prism). Data were expressed as the concentration of compound causing a 50% inhibition of cell viability or GI50.

wild-type HeLa cell line = assay: Wild-type versus KRAS HeLa cell viability: wild-type KRAS transgene; details: Homo sapiens; HeLa cells expressing wild-type KRAS, 72 hours; read-out: WT GI50
Experimental: (§1) Assay to Measure the Effects of Compounds of the Invention on Wild-Type Versus KRAS HeLa Cell Viability
(§2) Identifying synthetic lethal interactions between targeted small molecule therapies and characterised oncogenic mutations is a goal of modern oncology drug discovery efforts. To this end, PLK1-PBD inhibitors were tested on HeLa cells engineered to inducibly express wild-type or oncogenic KrasG12V transgenes using the FLP-in/T-Rex system (Invitrogen). Cells were plated, and then treated with or without Doxycycline to induce transgene expression, and then treated with serially-diluted PBD inhibitors. After 72 hours of incubation, cell viability was assessed using the Cell Titre Blue reagent (Promega) and a BMG Pherastar plate reader. The effect of PBD inhibition on cell viability with either wild-type or oncogenic G12V KRAS was assessed using the graphing/curve-fitting packages in GraphPad Prism.

KRAS G12V HeLa cell line = assay: Wild-type versus KRAS HeLa cell viability: oncogenic KrasG12V transgene; details: Homo sapiens; HeLa cells expressing KRAS G12V, 72 hours
Experimental: as §1, §2

HeLa cells = assay: Arresting cells in mitosis (Mitotic Index, phosphorylated Histone H3 immunofluorescence); details: HeLa cell line, 24 hours; for EC50: Homo sapiens, Mitotic Index, read-out: EC50
Experimental: Assay to Measure the Effects of Compounds of the Invention on Arresting Cells in Mitosis
Inhibiting the ability of PLK1 to bind to its phosphopeptide binding partners through the PBD causes cells to arrest in mitosis. Experimentally, this is measured by assessing the number of cells which are in mitosis at a certain time after treatment with a PLK1-PBD inhibitor by immunofluorescent detection of phosphorylated Histone H3 (pH3), a marker which is only present in mitotic cells. PLK1-PBD inhibitors are expected to cause a dose-dependent increase in pH3-positive cells, which is reported as Mitotic Index (MI)—the percentage of cells which, at a given time, are positive for this mitotic mark. The following protocol has been used to measure MI: • 1. Plate HeLa cells at 10,000/well in 100 μL/well in clear flat-bottom 96-well plates and incubate overnight. • 2. Immediately prior to treatment, dilute compounds in medium in a 96-well round-bottom plate. Make up all compounds at 5 times final desired concentration on cells, and serially dilute 1:2 across the plate ensuring that there is 100 μL of each concentration (start with 200 μl of the top concentration on the left of the plate). […] Treat cells by adding 25 μL from the compound dilution plate to triplicate wells. • 4. Incubate cells with compound for 24 hours. • 5. After 24 hours, fixation and staining is carried out as follows: • 6. Dilute 37% formaldehyde in PBS to give a 12.95% solution by adding 3.5 mL formaldehyde to 6.5 mL of PBS. • 7. Add 50 μL of formaldehyde fixation solution directly to each well of cells (which already contain 125 μL medium). • 8. Incubate at room temp for 10 minutes. • 9. Remove fixative and add 100 μL/well PBS+0.1% Triton X-100 for 10 minutes. • 10. Aspirate and add 100 μL/well PBS+1% BSA. • 11. Aspirate and add 50 μL/well of primary antibody (anti-PH3 [1:2000]/anti-MPM2 [1:1000]) diluted in PBS+1% BSA. Incubate for 1 hour. • 12. Wash×2 with 100 μL/well PBS+1% BSA. • 13. Add 50 μL/well of secondary antibody plus Hoechst stain (anti-rabbit Alexafluor 488 [1:500]; anti-mouse Alexafluor 546 [1:500]+Hoechst 33342 [1:2500 final concentration=4 μg/mL])diluted in PBS+1% BSA. Incubate for 1 hour. • 14. Wash twice with 100 μL/well PBS+1% BSA. • 15. Aspirate and add 100 μL/well PBS. Plates can be stored at 4° C. in PBS for several weeks before scanning on the Cellomics Arrayscan. […] Scan on Cellomics using Target Activation Bioapplication. • 17. MI data emerging from the Cellomic Bioapplication can be used to plot MI versus compound concentration, and subsequently used to generate an EC50 value for each compound using an appropriate graphing/curve-fitting package such as GraphPad Prism.

GI50 (HCT116 cells)	GI50 (wild-type HeLa cell line)	GI50 (KRAS G12V HeLa cell line)	EC50 (HeLa cells)	SMILES	% mitotic cells (HeLa cells)
30 nM	30 nM	20 nM	–	CN(C)CCCNC(=O)c1ccc(-c2ccc(-c3ccc(Cl)cc3)n2-c2ccccc2C(F)(F)F)cc1 [Example 58]	–
3890 nM	2510 nM	3580 nM	–	CN(C)CCNC(=O)c1cccc(-c2ccc(-c3ccc(Br)cc3)n2-c2ccccc2O)c1 [Example 25, hydrochloride]	–
390 nM	240 nM	80 nM	740 nM	CNCCNC(=O)c1cccc(-c2ccc(-c3ccc(Br)cc3)n2-c2ccccc2C(F)(F)F)c1 [Example 23]	79%
560 nM	340 nM	220 nM	–	COc1ccc(-c2ccc(-c3ccc(Br)cc3)n2-c2ccccc2C(F)(F)F)cc1C(=O)NCCN(C)C [Example 53, hydrochloride]	–
50 nM	40 nM	20 nM	–	CN(C)CCNC(=O)c1ccc(-c2ccc(-c3ccc(Br)cc3)n2-c2cnccc2C(F)(F)F)cc1 [Example 41]	–
60 nM	50 nM	30 nM	–	CN(C)CCNC(=O)c1ccc(-c2ccc(-c3ccc(C#N)cc3)n2-c2ccccc2C(F)(F)F)cc1 [Example 57]	–
220 nM	210 nM	140 nM	–	CN(C)CCCOc1ccc(-c2ccc(-c3ccc(Br)cc3)n2-c2ccccc2C(F)(F)F)cc1 [Example 35, hydrochloride]	–
60 nM	20 nM	5 nM	–	CN(C)CCNC(=O)c1ccc(-c2ccc(-c3ccc(Cl)cc3)n2-c2ccccc2C(F)(F)F)nc1 [Example 61, hydrochloride]	–
10 nM	10 nM	5 nM	–	CN(C)CCNC(=O)Cc1ccc(-c2ccc(-c3ccc(Cl)cc3)n2-c2ccccc2C(F)(F)F)cc1 [Example 91, hydrochloride]	–
40 nM	30 nM	10 nM	–	CN(C)CCNC(=O)c1ccc(-n2ncc(-c3ccc(Cl)cc3)c2-c2ccccc2C(F)(F)F)cc1 [Example 82, 4-[4-(4-Chlorophenyl)-5-[2-(trifluoromethyl)phenyl]pyrazol-1-yl]-N-[2-(dimethylamino)ethyl]-benzamide Hydrochloride]	–
120 nM	20 nM	8 nM	–	CN(C)CCCNC(=O)c1ccc(-c2ccc(-c3ccc(Cl)cc3)n2-c2ccccc2C(F)(F)F)nc1 [Example 62, hydrochloride]	–
120 nM	120 nM	70 nM	–	CN(C)CCNC(=O)c1ccc(-c2ccc(-c3ccccc3)n2-c2ccccc2C(F)(F)F)cc1 [Example 26, hydrochloride]	–
60 nM	30 nM	10 nM	–	CN(C)CCCNC(=O)c1ccc(-c2ccc(-c3ccc(F)cc3)n2-c2ccccc2C(F)(F)F)cc1 [Example 60, hydrochloride]	–
30 nM	120 nM	60 nM	–	CN(C)CCNC(=O)c1ccc(-c2ccc(-c3ccc(Br)cc3)n2-c2ccccc2C(F)(F)F)c(Cl)c1 [Example 36, hydrochloride]	–
490 nM	260 nM	80 nM	620 nM	CN(C)CCCNC(=O)c1cccc(-c2ccc(-c3ccc(Br)cc3)n2-c2ccccc2C(F)(F)F)c1 [Example 24]	77%
2180 nM	650 nM	380 nM	–	CN(C)CCNC(=O)c1ccc(Cl)c(-c2ccc(-c3ccc(Br)cc3)n2-c2ccccc2C(F)(F)F)c1 [Example 15, hydrochloride]	–
2710 nM	2190 nM	2520 nM	–	CN(C)CCNC(=O)c1cccc(-c2ccc(-c3ccc(Br)cc3)n2-c2ccccc2N)c1 [Example 56, hydrochloride]	–
60 nM	20 nM	8 nM	–	O=C(NCCN1CCNCC1)c1ccc(-c2ccc(-c3ccc(Cl)cc3)n2-c2ccccc2C(F)(F)F)cc1 [Example 87, hydrochloride]	–
20 nM	10 nM	5 nM	–	CN1CC[C@H](NC(=O)c2ccc(-c3ccc(-c4ccc(Cl)cc4)n3-c3ccccc3C(F)(F)F)cc2)C1 [Example 71, hydrochloride]	–
–	60 nM	30 nM	–	CN(C)CCNC(=O)c1ccc(-c2ccc(-c3ccc(Br)cc3)n2-c2ccccc2C(F)(F)F)cn1 [Example 28]	–
80 nM	130 nM	90 nM	–	CN(C)CCCNC(=O)c1ccc(-c2ccc(-c3ccc(Br)cc3)n2-c2ccccc2C(F)(F)F)cc1 [Example 34]	–
20 nM	5 nM	3 nM	–	CN1CC[C@@H](NC(=O)c2ccc(-c3ccc(-c4ccc(Cl)cc4)n3-c3ccccc3C(F)(F)F)cc2)C1 [Example 70, hydrochloride]	–
50 nM	10 nM	8 nM	–	CN(C)CCNC(=O)c1ccc(-c2ccc(-c3ccc(F)cc3)n2-c2ccccc2C(F)(F)F)cc1 [Example 59, hydrochloride]	–
–	180 nM	50 nM	860 nM	CN(C)CCNC(=O)c1cccc(-c2ccc(-c3ccc(Br)cc3)n2-c2ccccc2C(F)(F)F)c1 [Example 2, 3-[5-(4-Bromophenyl)-1-[2-(trifluoromethyl)phenyl]pyrrol-2-yl]-N-[2-(dimethylamino)ethyl]benzamide Hydrochloride]	86%
20 nM	50 nM	20 nM	–	CN(C)CCNC(=O)c1ccc(-c2ccc(-c3ccccc3)n2-c2ccccc2C(F)(F)F)c(Cl)c1 [Example 37, hydrochloride]	–
380 nM	130 nM	50 nM	–	CN(C)CCNC(=O)c1ccc(-c2ccc(-c3ccc(F)nc3)n2-c2ccccc2C(F)(F)F)cc1 [Example 42, hydrochloride]	–
